In patent publication US6977264B2, “Substituted piperidines and methods of use” (Amgen Inc., priority 2001, dated 2005) one finds melting point data, which are given here for four compounds.

Where a name gives a salt, the structure may show the parent alone.

What is called melting point is the temperature of the solid-liquid transition. For the compound `Cl.O=C(N[C@H](Cc1ccc(Cl)cc1)C(=O)N1CCC(c2ccccc2-n2cc[nH]c2=O)CC1)[C@@H]1Cc2ccccc2CN1`, the melting point was 191 °C (dec.).
Turning to `CS(=O)(=O)N(CC1CC1)c1ccccc1C1CCN(C(=O)[C@@H](Cc2ccc(Cl)cc2)NC(=O)[C@@H]2Cc3ccccc3CN2)CC1` (as salt: HCl) (hydrate or solvate) [Example 11, N-[(1R)-1-[(4-Chlorophenyl)methyl]-2-(4-{2-[(cyclopropylmethyl)-(methylsulfonyl)amino]-phenyl}piperidyl)-2-oxoethyl]((3S)(3-1,2,3,4-tetrahydroisoquinolyl))carboxamide], the melting point was in the range of 190 to 200 °C.
`CS(=O)(=O)Nc1ccccc1C1CCN(C(=O)[C@@H](Cc2ccc(Cl)c(Cl)c2)NC(=O)[C@@H]2Cc3ccccc3CN2)CC1` (as salt: HCl) [Example 10, ((3S)(3-1,2,3,4-Tetrahydroisoquinolyl))-N-[(1R)-1-[(3,4-dichlorophenyl)methyl]-2-(4-{2-[(methylsulfonyl)-amino]phenyl}piperidyl)-2-oxoethyl]carboxamide]: the melting point was 181 °C (dec.).
With `Cn1ccn(-c2ccccc2C2CCN(C(=O)[C@@H](Cc3ccc(Cl)cc3)NC(=O)[C@@H]3Cc4ccccc4CN3)CC2)c1=O` (as salt: HCl) [Example 17, ((3S)(3-1,2,3,4-Tetrahydroisoquinolyl))-N-((1R)-1-[(4-chlorophenyl)methyl]-2-{4-[2-(3-methyl-2-oxo(4-imidazolinyl))phenyl]piperidyl}-2-oxoethyl)carboxamide], the melting point was 178 °C (dec.).
